Data taken from patent US4315933A, “Antibacterial amide compounds and pharmaceutical compositions containing the same” (Warner-Lambert Company, priority 1980, dated 1982).
Values after ≈ are worked out from the molar mass of the structure shown.

What was measured:
Assay in all cases: Minimal Inhibitory Concentration, in vitro
Assay type in all cases: cell-based
[1] = tested on: Pseudomonas aeruginosa #28
Entero. cloacae = details: for MIC: Enterobacter cloacae
Serr. marces. = tested on: Serr. marces.
Kleb. pneu. = tested on: Kleb. pneu.
Staph. aureus S18713 = details: for MIC: Staphylococcus aureus

Compound	MIC [1]	MIC (Entero. cloacae)	MIC (Serr. marces.)	MIC (Kleb. pneu.)	MIC (Staph. aureus S18713)	Minimal Inhibitory Concentration [1]	Minimal Inhibitory Concentration (Serr. marces.)	Minimal Inhibitory Concentration (Kleb. pneu.)	Minimal Inhibitory Concentration (Entero. cloacae)	Minimal Inhibitory Concentration (Staph. aureus S18713)
CCNC(=O)Nc1ccc(-c2ncc(C(=O)N[C@@H](C(=O)N[C@@H]3C(=O)N4[C@@H]3SC(C)(C)[C@@H]4C(=O)O)c3ccc(O)cc3)c(O)n2)cc1 [Example 8, N-[2-[4-(N-Ethylcarbamoylamino)phenyl]-4-hydroxy-5-pyrimidinylcarbonyl]amoxicillin]	0.8 µg/mL (≈ 1.23 µM)	6.3 µg/mL (≈ 9.7 µM)	3.1 µg/mL (≈ 4.77 µM)	12.5 µg/mL (≈ 19.2 µM)	> 50 µg/mL	–	–	–	–	–
CC1(C)S[C@@H]2[C@H](NC(=O)[C@H](NC(=O)c3cnc(-c4ccc(NC(=O)CC#N)cc4)nc3O)c3ccc(O)cc3)C(=O)N2[C@H]1C(=O)O [Example 4, N-[2-[4-(Cyanoacetylamino)phenyl]-4-hydroxy-5-pyrimidinylcarbonyl]amoxicillin]	0.8 µg/mL (≈ 1.24 µM)	3.1 µg/mL (≈ 4.8 µM)	3.1 µg/mL (≈ 4.8 µM)	25 µg/mL (≈ 38.7 µM)	> 50 µg/mL	–	–	–	–	–
N-[2-[4-(Acetylamino)phenyl]-4-hydroxy-5-pyrimidinylcarbonyl]amoxicillin [Example 2]	–	–	–	–	–	1.6 µg/mL	200 µg/mL	6.3 µg/mL	–	–
N-[2-[4-[(2-Ethoxy-1,2-dioxoethyl)amino]phenyl]-4-hydroxy-5-pyrimidinylcarbonyl]amoxicillin [Example 6]	–	–	–	–	–	1.6 µg/mL	–	25 µg/mL	12,5 μg/ml	–
N-[2-[4-[(2,2,2-Trifluoroethyl)thio]acetylamino]phenyl]-4-hydroxy-5-pyrimidinylcarbonyl]amoxicillin [Example 7]	–	–	–	–	–	–	200 µg/mL	50 µg/mL	–	50 µg/mL
N-[2-[4-(Trifluoroacetylamino)phenyl]-4-hydroxy-5-pyrimidinylcarbonyl]amoxicillin [Example 3]	–	–	–	–	–	0.8 µg/mL	3.1 µg/mL	12.5 µg/mL	6.3 µg/mL	> 50 µg/mL
COCC(=O)Nc1ccc(-c2ncc(C(=O)N[C@@H](C(=O)N[C@@H]3C(=O)N4[C@@H]3SC(C)(C)[C@@H]4C(=O)O)c3ccccc3)c(O)n2)cc1 [Example 5, N-[2-[4-(Methoxyacetylamino)phenyl]-4-hydroxy-5-pyrimidinylcarbonyl]ampicillin]	3.1 µg/mL (≈ 4.88 µM)	12.5 µg/mL (≈ 19.7 µM)	100 µg/mL (≈ 158 µM)	25 µg/mL (≈ 39.4 µM)	100 µg/mL (≈ 158 µM)	–	–	–	–	–
N-[2-[4-(Dichloroacetylamino)phenyl]-4-hydroxy-5-pyrimidinylcarbonyl]amoxicillin [Example 1]	–	–	–	–	–	1.6 µg/mL	200 µg/mL	12.5 µg/mL	1.6 µg/mL	50 µg/mL
